Measurements: PubChem BioAssay (NCI)
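Cells were grown in 96-well plates and exposed to each compound for 48 hours at five concentrations; endpoints were interpolated linearly between bracketing concentrations, or set to the highest concentration if not reached. Abbreviation: GI50, concentration required for 50% inhibition of growth. TGI denotes the concentration required for complete inhibition of growth.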

Columns and labels:
Assay in all cases: NCI-60 cell line screen, 48 h
[1] = test system: OVCAR-4 ovarian
[2] = test system: HCT-15 colon
[3] = test system: CCRF-CEM leukemia
[4] = test system: K-562 leukemia
[5] = test system: SN12C renal
[6] = test system: NCI/ADR-RES ovarian
[7] = test system: SK-OV-3 ovarian
[8] = test system: OVCAR-8 ovarian
[9] = test system: TK-10 renal
[10] = test system: SK-MEL-5 melanoma
[11] = test system: SNB-75 CNS
[12] = test system: HCC-2998 colon
[13] = test system: RPMI-8226 leukemia
[14] = test system: NCI-H522 lung
[15] = test system: SK-MEL-28 melanoma
[16] = test system: HT29 colon
[17] = test system: SF-295 CNS
[18] = test system: HS 578T breast
[19] = test system: SW-620 colon
[20] = test system: BT-549 breast
[21] = test system: MDA-MB-231 breast
[22] = test system: M14 melanoma
[23] = test system: MCF7 breast
[24] = test system: HOP-62 NSCLC
[25] = test system: MOLT-4 leukemia
[26] = test system: OVCAR-3 ovarian
[27] = test system: DU-145 prostate
[28] = test system: MDA-MB-435
[29] = test system: HL-60(TB) leukemia
[30] = test system: HOP-92 NSCLC
[31] = test system: OVCAR-5 ovarian
[32] = test system: UACC-62 melanoma
[33] = test system: RXF 393 renal
[34] = test system: LOX IMVI melanoma
[35] = test system: T-47D breast
[36] = test system: HCT-116 colon
[37] = test system: IGROV1 ovarian
[38] = test system: ACHN renal
[39] = test system: 786-0 renal
[40] = test system: MALME-3M melanoma
[41] = test system: UO-31 renal
[42] = test system: U251 CNS
[43] = test system: SF-268 CNS
[44] = test system: NCI-H460 lung
[45] = test system: NCI-H23 lung
[46] = test system: NCI-H226 lung
[47] = test system: A549 NSCLC
[48] = test system: SF-539 CNS
[49] = test system: SNB-19 CNS
[50] = test system: SK-MEL-2 melanoma
[51] = test system: EKVX NSCLC
[52] = test system: PC-3 prostate
[53] = test system: SR leukemia
[54] = test system: UACC-257 melanoma
[55] = test system: COLO 205 colon
[56] = test system: KM12 colon
[57] = test system: A498 renal
[58] = test system: CAKI-1 renal

SMILES: C=C1C(=O)O[C@H]2[C@H]1CC/C(COC(=O)NCCc1c[nH]c3ccccc13)=C\CC[C@@]1(C)O[C@@H]21
- GI50 [1]: 2.96 µM
- TGI [1]: 13.1 µM
- GI50 [2]: 1.23 µM
- TGI [2]: 2.81 µM
- GI50 [3]: 0.362 µM
- TGI [3]: 3.57 µM
- GI50 [4]: 0.503 µM
- TGI [4]: 10.4 µM
- GI50 [5]: 1.2 µM
- TGI [5]: 3.15 µM
- GI50 [6]: 2.5 µM
- TGI [6]: 11.8 µM
- GI50 [7]: 12.5 µM
- TGI [7]: 25.1 µM
- GI50 [8]: 1.86 µM
- TGI [8]: 5.21 µM
- GI50 [9]: 1.92 µM
- TGI [9]: 3.55 µM
- GI50 [10]: 2.44 µM
- TGI [10]: 5.95 µM
- GI50 [11]: 8.45 µM
- TGI [11]: 21.8 µM
- GI50 [12]: 1.67 µM
- TGI [12]: 3.18 µM
- GI50 [13]: 0.826 µM
- TGI [13]: 4.26 µM
- GI50 [14]: 1.26 µM
- TGI [14]: 2.84 µM
- GI50 [15]: 1.38 µM
- TGI [15]: 3.11 µM
- GI50 [16]: 1.55 µM
- TGI [16]: 3.78 µM
- GI50 [17]: 9.68 µM
- TGI [17]: 21.4 µM
- GI50 [18]: 10.3 µM
- TGI [18]: 38.4 µM
- GI50 [19]: 1.2 µM
- TGI [19]: 2.81 µM
- GI50 [20]: 1.27 µM
- TGI [20]: 2.82 µM
- GI50 [21]: 1.48 µM
- TGI [21]: 3.3 µM
- GI50 [22]: 1.44 µM
- TGI [22]: 3.65 µM
- GI50 [23]: 0.585 µM
- TGI [23]: 2.26 µM
- GI50 [24]: 5.25 µM
- TGI [24]: 19.8 µM
- GI50 [25]: 1.91 µM
- TGI [25]: 6.59 µM
- GI50 [26]: 1.04 µM
- TGI [26]: 2.31 µM
- GI50 [27]: 1.19 µM
- TGI [27]: 2.68 µM
- GI50 [28]: 1.62 µM
- TGI [28]: 3.9 µM
- GI50 [29]: 0.583 µM
- TGI [29]: 2.86 µM
- GI50 [30]: 1.27 µM
- TGI [30]: 3.07 µM
- GI50 [31]: 2.3 µM
- TGI [31]: 5.75 µM
- GI50 [32]: 1.47 µM
- TGI [32]: 3.2 µM
- GI50 [33]: 1.16 µM
- TGI [33]: 2.56 µM
- GI50 [34]: 0.788 µM
- TGI [34]: 2.23 µM
- GI50 [35]: 1.7 µM
- TGI [35]: 4.41 µM
- GI50 [36]: 1.01 µM
- TGI [36]: 2.39 µM
- GI50 [37]: 1.09 µM
- TGI [37]: 2.9 µM
- GI50 [38]: 1.37 µM
- TGI [38]: 2.71 µM
- GI50 [39]: 1.17 µM
- TGI [39]: 2.81 µM
- GI50 [40]: 1.94 µM
- TGI [40]: 3.82 µM
- GI50 [41]: 1.43 µM
- TGI [41]: 2.73 µM
- GI50 [42]: 4.88 µM
- TGI [42]: 17.1 µM
- GI50 [43]: 2.94 µM
- TGI [43]: 13.5 µM
- GI50 [44]: 3.82 µM
- TGI [44]: 16.3 µM
- GI50 [45]: 2.28 µM
- TGI [45]: 6.81 µM
- GI50 [46]: 1.8 µM
- TGI [46]: 3.39 µM
- GI50 [47]: 10.7 µM
- TGI [47]: 25.4 µM
- GI50 [48]: 1.62 µM
- TGI [48]: 3.29 µM
- GI50 [49]: 6.46 µM
- TGI [49]: 20.2 µM
- GI50 [50]: 5.53 µM
- TGI [50]: 20.1 µM
- GI50 [51]: 1.51 µM
- TGI [51]: 3.57 µM
- GI50 [52]: 3.05 µM
- TGI [52]: 13 µM
- GI50 [53]: 1.07 µM
- TGI [53]: 7.05 µM
- GI50 [54]: 2 µM
- TGI [54]: 4.83 µM
- GI50 [55]: 1.36 µM
- TGI [55]: 3.09 µM
- GI50 [56]: 5.41 µM
- TGI [56]: 21.4 µM
- GI50 [57]: 8.19 µM
- TGI [57]: 21.2 µM

SMILES: COc1ccc(C(=O)c2ccc(OC)cc2OC)cc1
- GI50 [1]: 6.54 µM
- TGI [1]: > 100 µM
- GI50 [2]: 3.66 µM
- TGI [2]: > 100 µM
- GI50 [3]: 3.23 µM
- TGI [3]: > 100 µM
- GI50 [4]: 0.935 µM
- TGI [4]: > 100 µM
- GI50 [5]: 5.58 µM
- TGI [5]: > 100 µM
- GI50 [6]: 1.59 µM
- TGI [6]: 5.98 µM
- GI50 [7]: 2.66 µM
- TGI [7]: 8.81 µM
- GI50 [8]: 4.55 µM
- TGI [8]: > 100 µM
- GI50 [9]: 5.01 µM
- TGI [9]: > 100 µM
- GI50 [10]: 2.06 µM
- TGI [10]: 5.32 µM
- GI50 [11]: 1.76 µM
- TGI [11]: 5.57 µM
- GI50 [12]: 6.54 µM
- TGI [12]: 41.3 µM
- GI50 [13]: 3.18 µM
- TGI [13]: 18.7 µM
- GI50 [14]: 1.06 µM
- TGI [14]: 4.38 µM
- GI50 [15]: 4.05 µM
- TGI [15]: > 100 µM
- GI50 [16]: 2.92 µM
- TGI [16]: 24.4 µM
- GI50 [17]: 2.33 µM
- TGI [17]: 9.4 µM
- GI50 [18]: 3.5 µM
- TGI [18]: 31.4 µM
- GI50 [19]: 2.96 µM
- TGI [19]: > 100 µM
- GI50 [20]: 4.06 µM
- TGI [20]: > 100 µM
- GI50 [21]: 6.6 µM
- TGI [21]: 90.2 µM
- GI50 [22]: 2.47 µM
- TGI [22]: > 100 µM
- GI50 [23]: 2.75 µM
- TGI [23]: > 100 µM
- GI50 [24]: 2.6 µM
- TGI [24]: > 100 µM
- GI50 [25]: 4.9 µM
- TGI [25]: > 100 µM
- GI50 [26]: 2.2 µM
- TGI [26]: 5.95 µM
- GI50 [27]: 3.52 µM
- TGI [27]: 25.6 µM
- GI50 [28]: 0.361 µM
- TGI [28]: 2.34 µM
- GI50 [29]: 2.94 µM
- TGI [29]: > 100 µM
- GI50 [30]: 1.84 µM
- TGI [30]: 53.9 µM
- GI50 [31]: 8.79 µM
- TGI [31]: > 100 µM
- GI50 [32]: 5.67 µM
- TGI [32]: > 100 µM
- GI50 [33]: 1.56 µM
- TGI [33]: 6.15 µM
- GI50 [34]: 4.47 µM
- TGI [34]: > 100 µM
- GI50 [35]: 3.09 µM
- TGI [35]: > 100 µM
- GI50 [36]: 3.24 µM
- TGI [36]: 34.7 µM
- GI50 [37]: 2.61 µM
- TGI [37]: 40.9 µM
- GI50 [38]: 6.26 µM
- TGI [38]: > 100 µM
- GI50 [39]: 5.32 µM
- TGI [39]: > 100 µM
- GI50 [40]: 5.83 µM
- TGI [40]: > 100 µM
- GI50 [41]: 2.7 µM
- TGI [41]: 39.6 µM
- GI50 [42]: 4.27 µM
- TGI [42]: > 100 µM
- GI50 [43]: 7.57 µM
- TGI [43]: > 100 µM
- GI50 [44]: 3.74 µM
- TGI [44]: 89.5 µM
- GI50 [45]: 3.79 µM
- TGI [45]: > 100 µM
- GI50 [47]: 5.55 µM
- TGI [47]: > 100 µM
- GI50 [48]: 2.81 µM
- TGI [48]: 22.4 µM
- GI50 [49]: 6.12 µM
- TGI [49]: > 100 µM
- GI50 [50]: 2.89 µM
- TGI [50]: 12.2 µM
- GI50 [51]: 7.17 µM
- TGI [51]: > 100 µM
- GI50 [52]: 4.38 µM
- TGI [52]: > 100 µM
- GI50 [53]: 0.891 µM
- TGI [53]: > 100 µM
- GI50 [58]: 3.75 µM
- TGI [58]: > 100 µM
- GI50 [54]: 5 µM
- TGI [54]: > 100 µM
- GI50 [55]: 1.65 µM
- TGI [55]: 3.51 µM
- GI50 [56]: 2.22 µM
- TGI [56]: 24.7 µM
- GI50 [57]: 5.87 µM
- TGI [57]: > 100 µM
